From patent publication US6784201B2, “Benzothiepines having activity as inhibitors of ileal bile acid transport and taurocholate uptake” (G.D. Searle & Company, priority 1994, dated 2004)

biological target: T1, human IBAT (Homo sapiens, UniProt Q12908); experiment: In vitro assay of IBAT-mediated uptake of [14C]-taurocholate (TC) in H14 cells; assay type: cell-based; conditions: read-out: Human TC IC50
T1 construct: expressed in transfected cells; host or cells: Baby hamster kidney (BHK) cells, clone H14
T1 sequence (Q12908 1-348): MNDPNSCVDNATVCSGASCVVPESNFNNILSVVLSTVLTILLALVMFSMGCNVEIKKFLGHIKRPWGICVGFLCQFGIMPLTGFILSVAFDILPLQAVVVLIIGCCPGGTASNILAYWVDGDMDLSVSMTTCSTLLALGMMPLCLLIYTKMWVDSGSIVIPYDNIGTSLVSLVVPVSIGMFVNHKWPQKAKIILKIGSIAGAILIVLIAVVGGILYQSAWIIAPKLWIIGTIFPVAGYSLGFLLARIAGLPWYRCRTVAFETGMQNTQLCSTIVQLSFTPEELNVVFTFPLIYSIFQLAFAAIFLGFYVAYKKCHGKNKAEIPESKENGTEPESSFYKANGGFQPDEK
Method in brief: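 BHK cells stably expressing human IBAT (H14) were incubated 2 h at 37° C with compound and 3 μM final [14C]-taurocholate in DMEM (4.5 g/L glucose) plus 0.2% fatty acid-free BSA. After cold PBS washes, cell-associated radioactivity was measured by scintillation counting.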

IC50 [nM] | Structure (SMILES)
3 | CCCCC1(CCCC)CS(=O)(=O)c2ccc(N(C)C)cc2C(c2cccc(OCCOCCOCC[n+]3ccncc3)c2)C1O (stereo not drawn) [Example 1057]
4 | CCCCC1(CCCC)CS(=O)(=O)c2ccc(N(C)C)cc2C(c2cccc(OCCOCCOCC[n+]3ccccc3)c2)C1O (stereo not drawn) [Example 1068]
4 | CCCCC1(CCCC)CS(=O)(=O)c2ccc(N(C)C)cc2C(c2cccc(OCCOCCOCC[n+]3ccc(CO)cc3)c2)C1O (stereo not drawn) [Example 1072]
4.5 | CCCCC1(CCCC)CS(=O)(=O)c2ccc(N(C)C)cc2C(c2cccc(CO)c2)C1O (stereo not drawn) [Example 1077]
5 | CCCCC1(CCCC)CS(=O)(=O)c2ccc(N(C)C)cc2C(c2ccccn2)C1O (stereo not drawn) [Example 1082]
5 | CCCCC1(CCCC)CS(=O)(=O)c2ccc(N(C)C)cc2C(c2cccc(OCCOCCOCC[n+]3ccccc3C)c2)C1O (stereo not drawn) [Example 1083]
5 | CCCCC1(CCCC)CS(=O)(=O)c2ccc(N(C)C)cc2C(c2cccc(OCCOCCOCC[n+]3ccc(CC)cc3)c2)C1O (stereo not drawn) [Example 1084]
5 | CCCCC1(CCCC)CS(=O)(=O)c2ccc(N(C)C)cc2C(c2ccsc2)C1O (stereo not drawn) [Example 1085]
6 | CCCCC1(CCCC)CS(=O)(=O)c2ccc(N(C)C)cc2C(c2cccc(OCCOCCOCC[n+]3ccc(C)cc3)c2)C1O (stereo not drawn) [Example 1096]
6 | CCCCC1(CCCC)CS(=O)(=O)c2ccc(N(C)C)cc2C(c2cccc(NC(=O)CCBr)c2)C1O (stereo not drawn) [Example 1097]
6.8 | CCCCC1(CCCC)CS(=O)(=O)c2ccc(N(C)C)cc2C(c2ccc(OC)cc2)C1O (stereo not drawn) [Example 1100]
7.3 | CCCCC1(CCCC)CS(=O)(=O)c2ccc(N(C)C)cc2C(c2cccc(O)c2)C1O (stereo not drawn) [Example 1106]
7.5 | CCCCC1(CCCC)CS(=O)(=O)c2ccc(N(C)C)cc2C(c2cccc(C[n+]3ccccc3)c2)C1O (stereo not drawn) [Example 1107]
7.5 | CCCCC1(CCCC)CS(=O)(=O)c2ccc(N(C)C)cc2C(c2cccnc2)C1O (stereo not drawn) [Example 1108]
8 | CCCCC1(CCCC)CS(=O)(=O)c2ccc(N(C)C)cc2C(c2ccc(OCc3ccccn3)c(F)c2)C1O (stereo not drawn) [Example 1109]
8 | CCCCC1(CCCC)CS(=O)(=O)c2ccc(N(C)C)cc2C(c2ccc(OCCC[n+]3ccc(CCC(=O)O)cc3)c(F)c2)C1O (stereo not drawn) [Example 1111]
8 | CCCCC1(CCCC)CS(=O)(=O)c2ccc(N(C)C)cc2C(c2ccncc2)C1O (stereo not drawn) [Example 1112]
9 | CCCCC1(CCCC)CS(=O)(=O)c2ccc(N(C)C)cc2C(c2ccc(OCc3ccncc3)c(F)c2)C1O (stereo not drawn) [Example 1113]
9.8 | CCCCC1(CCCC)CS(=O)(=O)c2ccc(N(C)C)cc2C(c2ccc(F)cc2)C1O (stereo not drawn) [Example 1115]

The remaining lines, values behind:

Structure (SMILES) | IC50 [nM]
CCCCC1(CCCC)CS(=O)(=O)c2ccc(N(C)C)cc2C(c2cccc(OCCOCCOCC[n+]3ccc4ccccc4c3)c2)C1O (stereo not drawn) [Example 1054] | 3
CCCCC1(CCCC)CS(=O)(=O)c2ccc(N(C)C)cc2C(c2ccc(OCCOCCOCC[N+]3(C)CCCN(C)CCN(C)CCCN(C)CC3)cc2)C1O (stereo not drawn) [Example 1055] | 3
CCCCC1(CCCC)CS(=O)(=O)c2ccc(N(C)C)cc2C(c2cccc(OCCOCCOCC[n+]3ccc4c(c3)CCCCC4)c2)C1O (stereo not drawn) [Example 1056] | 3
CCCCC1(CCCC)CS(=O)(=O)c2ccc(N(C)C)cc2C(c2cccc(OCCOCCOCC[N+](CC)(CC)CCN(C)C(=O)c3ccccc3)c2)C1O (stereo not drawn) [Example 1058] | 3
CCCCC1(CCCC)CS(=O)(=O)c2ccc(N(C)C)cc2C(c2ccc(OCCOCC[N+]3(CC)CCCCC3)c(F)c2)C1O (stereo not drawn) [Example 1059] | 3
CCCCC1(CC)CS(=O)(=O)c2ccc(NC)cc2C(c2ccc(OC)c(F)c2)C1O (stereo not drawn) [Example 1060] | 3.6
CCCCC1(CCCC)CS(=O)(=O)c2ccc(NC)cc2C(c2cccc(OCCOCCOCC[n+]3cc4ccccc4cn3)c2)C1O (stereo not drawn) [Example 1061] | 4
CCCCC1(CCCC)CS(=O)(=O)c2ccc(NC)cc2C(c2cccc(OCCOCCOCC[N+](C)(C)CCN(C)S(=O)(=O)c3ccccc3)c2)C1O (stereo not drawn) [Example 1062] | 4
C=COCC[N+](CC)(CC)CCOCCOCCOc1cccc(C2c3cc(NC)ccc3S(=O)(=O)CC(CCCC)(CCCC)C2O)c1 (stereo not drawn) [Example 1063] | 4
CCCCC1(CCCC)CS(=O)(=O)c2ccc(NC)cc2C(c2cccc(OCCOCCOCC[n+]3ccccc3CCN3CCCCC3)c2)C1O (stereo not drawn) [Example 1064] | 4
CCCCC1(CCCC)CS(=O)(=O)c2ccc(N(C)C)cc2C(c2cccc(OCCOCCOCC[N+](CCOCCOC)(CCOCCOC)CCOCCOC)c2)C1O (stereo not drawn) [Example 1065] | 4
CCCCC1(CCCC)CS(=O)(=O)c2ccc(N(C)C)cc2C(c2cccc(OCCOCCOCC[n+]3cc4ccccc4c4ccccc43)c2)C1O (stereo not drawn) [Example 1066] | 4
CCCCC1(CCCC)CS(=O)(=O)c2c(cc(N(C)C)cc2N(C)C)C(c2ccccc2)C1O (stereo not drawn) [Example 1069] | 4
CCCCC1(CCCC)CS(=O)(=O)c2ccc(N(C)C)cc2C(c2ccc(OCCOCC[n+]3ccn(CC)c3)c(F)c2)C1O (stereo not drawn) [Example 1070] | 4
CCCCC1(CCCC)CS(=O)(=O)c2ccc(N(C)C)cc2C(c2cccc(OCCOCCOCC[N+](CC)(CC)CCN(C)P(C)(=O)c3ccccc3)c2)C1O (stereo not drawn) [Example 1071] | 4
CCCCC1(CCCC)CS(=O)(=O)c2ccc(N(C)C)cc2C(c2ccc(OCCOCC[N+]34CCN(CC3)CC4)c(F)c2)C1O (stereo not drawn) [Example 1073] | 4
CCCCC1(CC)CS(=O)(=O)c2ccc(N(C)C)cc2C(c2ccc(OC)c(F)c2)C1O (stereo not drawn) [Example 1074] | 4
CCCCC1(CCCC)CS(=O)(=O)c2c(cc(N(C)C)cc2N(C)C)C(c2ccc(F)cc2)C1O (stereo not drawn) [Example 1075] | 4.3
CCCCC1(CCCC)CS(=O)(=O)c2ccc(N(C)C)cc2C(c2ccc(OCCOCCOCC[N+](C)(C)C)cc2)C1O (stereo not drawn) [Example 1076] | 4.5
CCCCC1(CC)CS(=O)(=O)c2ccc(N(C)C)cc2C(c2cccc(OCCOCCOCC[N+](C)(C)CCCCCC[N+](C)(C)CCOCCOCCOc3cccc(C4c5cc(N(C)C)ccc5S(=O)(=O)CC(CC)(CCCC)C4O)c3)c2)C1O (stereo not drawn) [Example 1079] | 5
CCCCC1(CCCC)CS(=O)(=O)c2ccc(N(C)C)cc2C(c2cccc(OCCOCCOCC[N+](CC)(CC)CCN(C)S(=O)(=O)c3ccccc3)c2)C1O (stereo not drawn) [Example 1080] | 5

Structure (SMILES) | IC50 [nM]
CCCCC1(CCCC)CS(=O)(=O)c2ccc(N(C)C)cc2C(c2cccc(OCCOCCOCC[N+](CC)(CC)CC(C)=O)c2)C1O (stereo not drawn) [Example 1081] | 5
CCCCC1(CCCC)CS(=O)(=O)c2ccc(N(C)C)cc2C(c2cccc(OCCOCCOCC[N+](C)(C)CCN(CC)C(=O)c3ccccc3)c2)C1O (stereo not drawn) [Example 1086] | 5
CCCCC1(CCCC)CS(=O)(=O)c2ccc(N(C)C)cc2C(c2cccc(OCC[N+](CC)(CC)CC)c2)C1O (stereo not drawn) [Example 1087] | 5
CCCCC1(CC)CS(=O)(=O)c2ccc(N(C)C)cc2C(c2ccc3c(c2)OCO3)C1O (stereo not drawn) [Example 1088] | 5.5
CCCCC1(CC)CS(=O)(=O)c2ccc(N(C)C)cc2C(c2ccc(OC)cc2)C1O (stereo not drawn) [Example 1089] | 5.7
CCCCC1(CCCC)CS(=O)(=O)c2ccc(N(C)C)cc2C(c2cccc(OCCOCCOCC[n+]3cccc4ccccc43)c2)C1O (stereo not drawn) [Example 1090] | 6
CCCCC1(CCCC)CS(=O)(=O)c2ccc(N(C)C)cc2C(c2cccc(OCCOCCOCC[N+](C)(C3CCCCC3)C3CCCCC3)c2)C1O (stereo not drawn) [Example 1091] | 6
CCCCC1(CCCC)CS(=O)(=O)c2ccc(N(C)C)cc2C(c2cccc(OCCOCCOCC[N+](C)(C)c3ccccc3)c2)C1O (stereo not drawn) [Example 1092] | 6
CCCCC1(CCCC)CS(=O)(=O)c2ccc(N(C)C)cc2C(c2cccc(OCCOCCOCC[N+](C)(C)CC(=O)OCC)c2)C1O (stereo not drawn) [Example 1093] | 6
CCCCC1(CCCC)CS(=O)(=O)c2ccc(N(C)C)cc2C(c2cccc(OCCOCCOCC[n+]3cccc(C(=O)OC)c3)c2)C1O (stereo not drawn) [Example 1094] | 6
CCCCC1(CCCC)CS(=O)(=O)c2ccc(N(C)C)cc2C(c2cccc(OCCOCCOCC[N+]34CCN(CC3)CC4)c2)C1O (stereo not drawn) [Example 1095] | 6
CCCCC1(CC)CS(=O)(=O)c2ccc(N(C)C)cc2C(c2ccc(OC)cc2)C1O (stereo not drawn) [Example 1099] | 6.3
CCCCC1(CCCC)CS(=O)(=O)c2ccc(N(C)C)cc2C(c2ccc(OCCOCC[n+]3ccc(N(C)C)cc3)c(F)c2)C1O (stereo not drawn) [Example 1101] | 7
CCCCC1(CCCC)CS(=O)(=O)c2ccc(N(C)C)cc2C(c2ccc(OCCOCCOCC[N+](C)(C)CC[N+](C)(C)C)cc2)C1O (stereo not drawn) [Example 1103] | 7
CCCCC1(CCCC)CS(=O)(=O)c2ccc(N(C)C)cc2C(c2cccc(OCCOCCOCC[N+]3=C4CCCCCN4CCC3)c2)C1O (stereo not drawn) [Example 1104] | 7
CCCCC1(CCCC)CS(=O)(=O)c2ccc(N(C)C)cc2C(c2cccc(OCCOCCOCC[n+]3ccc(N4CCCC4)cc3)c2)C1O (stereo not drawn) [Example 1110] | 8
CCCCC1(CCCC)CS(=O)(=O)c2ccc(NC)cc2C(c2cccc(OC)c2)C1O (stereo not drawn) [Example 1114] | 9
CCCCC1(CC)CS(=O)(=O)c2ccc(N(C)C)cc2C(c2cccc(OCCOCCOCC[N+](C)(C)C)c2)C1O (stereo not drawn) [Example 1117] | 10
CCCCC1(CC)CS(=O)(=O)c2ccc(N(C)C)cc2C(c2ccc(O)c(F)c2)C1O (stereo not drawn) [Example 1118] | 10
CCCCC1(CCCC)CS(=O)(=O)c2ccc(N(C)C)cc2C(c2cccc(OCCOCCOCC[n+]3ccc(-c4ccccc4)cc3)c2)C1O (stereo not drawn) [Example 1119] | 10
